Measured values from patent US20250084039A1, “4-SUBSTITUTED AMINOISOQUINOLINE DERIVATIVES” (Purdue Research Foundation, priority 2016, published 2025).
Like-named read-outs stand apart in the source and are kept apart here. Values belong to the compound of their own block, whether it stands above or below them.

Tests used:
RET = RET (Homo sapiens (Human), UniProt P07949); assay: Reaction Biology HotSpot kinase assay; type: biochemical; details: 500 nM compound; for inhibition at 0.5 µM: read-out: Percentage kinase inhibition RET
Method in brief: (§1)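 Read-out is percent remaining kinase activity relative to a DMSO vehicle reaction. Compound was tested once at 500 nM and preincubated 20 min with kinase and substrate, then the reaction ran 2 h at room temperature with 100 μM final ATP spiked with [γ-33P]ATP before spotting onto P81 ion-exchange paper.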

K562 = assay: IC50 proliferation assay (Alamar Blue, 72 h); type: cell-based
MV4-11 = assay: IC50 proliferation assay (Alamar Blue, 72 h); type: cell-based; details: read-out: IC50 (proliferation inhibition) Cell line - MV4-11
Method in brief: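 Cells seeded ~18 h before treatment with semi-serial compound dilutions made in DMSO then growth medium. After 72 h exposure, Alamar Blue added and read following 4 h further at 37 °C; IC50 for proliferation inhibition.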

AKT2 = AKT2 (Homo sapiens (Human), UniProt P31751); assay: Reaction Biology HotSpot kinase assay; type: biochemical; details: 500 nM compound; for inhibition at 0.5 µM: read-out: Percentage kinase inhibition AKT2
Method in brief: as §1

BLK = BLK (Homo sapiens (Human), UniProt P51451); assay: Reaction Biology HotSpot kinase assay; type: biochemical; details: 500 nM compound; for inhibition at 0.5 µM: read-out: Percentage kinase inhibition BLK
Method in brief: (§2)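 Each compound was tested at 500 nM, with 33P incorporation from ATP (100 μM final, including [γ-33P]ATP) measured by P81 paper capture after a 2 h room-temperature reaction.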

BRK = BRK (Homo sapiens (Human), UniProt Q13882); assay: Reaction Biology HotSpot kinase assay; type: biochemical; details: 500 nM compound; for inhibition at 0.5 µM: read-out: Percentage kinase inhibition BRK
Method in brief: (§3)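 HotSpot 33P transfer format. Enzyme, substrate and 500 nM test compound sit together for 20 min, then labelled and unlabelled ATP totalling 100 μM are added and phosphorylation proceeds for 2 h at room temperature. Products are captured on P81 cellulose paper, and activity is expressed relative to DMSO.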

CDK2/cyclin A = CDK2/cyclin A (Homo sapiens (Human), UniProt P24941); assay: Reaction Biology HotSpot kinase assay; type: biochemical; details: 500 nM compound; for inhibition at 0.5 µM: read-out: Percentage kinase inhibition CDK2/cyclin A
Method in brief: as §2

CDK4/cyclin D1 = CDK4/cyclin D1 (Homo sapiens (Human), UniProt P11802); assay: Reaction Biology HotSpot kinase assay; type: biochemical; details: 500 nM compound; for inhibition at 0.5 µM: read-out: Percentage kinase inhibition CDK4/cyclin D1
Method in brief: as §3

CDK9/cyclin K = CDK9/cyclin K (Homo sapiens (Human), UniProt P50750); assay: Reaction Biology HotSpot kinase assay; type: biochemical; details: 500 nM compound; for inhibition at 0.5 µM: read-out: Percentage kinase inhibition CDK9/cyclin K
Method in brief: as §1

CDK9/cyclin T1 = CDK9/cyclin T1 (Homo sapiens (Human), UniProt P50750); assay: Reaction Biology HotSpot kinase assay; type: biochemical; details: 500 nM compound; for inhibition at 0.5 µM: read-out: Percentage kinase inhibition CDK9/cyclin T1
Method in brief: as §1

FER = FER (Homo sapiens (Human), UniProt P16591); assay: Reaction Biology HotSpot kinase assay; type: biochemical; details: 500 nM compound; for inhibition at 0.5 µM: read-out: Percentage kinase inhibition FER
FER, sequence (P16591 whole entry): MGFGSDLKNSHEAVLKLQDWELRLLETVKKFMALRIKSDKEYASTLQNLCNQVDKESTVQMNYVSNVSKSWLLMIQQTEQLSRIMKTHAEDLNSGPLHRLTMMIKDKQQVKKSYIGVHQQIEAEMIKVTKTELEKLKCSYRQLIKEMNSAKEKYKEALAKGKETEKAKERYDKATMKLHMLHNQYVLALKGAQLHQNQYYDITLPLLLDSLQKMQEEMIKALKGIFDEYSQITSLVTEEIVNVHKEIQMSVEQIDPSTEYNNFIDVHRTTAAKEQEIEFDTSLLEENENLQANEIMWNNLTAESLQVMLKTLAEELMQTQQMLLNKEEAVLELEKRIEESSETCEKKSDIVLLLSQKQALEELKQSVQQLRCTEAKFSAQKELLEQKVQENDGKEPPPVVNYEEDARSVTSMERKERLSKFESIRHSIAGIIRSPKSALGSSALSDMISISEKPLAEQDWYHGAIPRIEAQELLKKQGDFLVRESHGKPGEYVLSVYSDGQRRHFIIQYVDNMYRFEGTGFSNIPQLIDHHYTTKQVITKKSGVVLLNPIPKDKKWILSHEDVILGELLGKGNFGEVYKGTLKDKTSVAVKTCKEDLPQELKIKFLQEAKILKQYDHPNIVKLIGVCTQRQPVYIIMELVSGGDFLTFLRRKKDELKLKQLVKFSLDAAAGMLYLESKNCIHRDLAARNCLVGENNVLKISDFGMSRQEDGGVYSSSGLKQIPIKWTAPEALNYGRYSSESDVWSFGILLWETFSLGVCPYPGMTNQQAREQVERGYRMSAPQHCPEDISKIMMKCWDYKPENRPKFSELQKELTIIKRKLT
Method in brief: as §1

FRK/PTK5 = FRK/PTK5 (Homo sapiens (Human), UniProt P42685); assay: Reaction Biology HotSpot kinase assay; type: biochemical; details: 500 nM compound; for inhibition at 0.5 µM: read-out: Percentage kinase inhibition FRK/PTK5
Method in brief: as §1

IGF1R = IGF1R (Homo sapiens (Human), UniProt P08069); assay: Reaction Biology HotSpot kinase assay; type: biochemical; details: 500 nM compound; for inhibition at 0.5 µM: read-out: Percentage kinase inhibition IGF1R
Method in brief: as §1

IR = IR (Homo sapiens (Human), UniProt P06213); assay: Reaction Biology HotSpot kinase assay; type: biochemical; details: 500 nM compound; for inhibition at 0.5 µM: read-out: Percentage kinase inhibition IR
Method in brief: as §1

IRR/INSRR = IRR/INSRR (Homo sapiens (Human), UniProt P14616); assay: Reaction Biology HotSpot kinase assay; type: biochemical; details: 500 nM compound; for inhibition at 0.5 µM: read-out: Percentage kinase inhibition IRR/INSRR
IRR/INSRR, sequence (P14616 27-1297): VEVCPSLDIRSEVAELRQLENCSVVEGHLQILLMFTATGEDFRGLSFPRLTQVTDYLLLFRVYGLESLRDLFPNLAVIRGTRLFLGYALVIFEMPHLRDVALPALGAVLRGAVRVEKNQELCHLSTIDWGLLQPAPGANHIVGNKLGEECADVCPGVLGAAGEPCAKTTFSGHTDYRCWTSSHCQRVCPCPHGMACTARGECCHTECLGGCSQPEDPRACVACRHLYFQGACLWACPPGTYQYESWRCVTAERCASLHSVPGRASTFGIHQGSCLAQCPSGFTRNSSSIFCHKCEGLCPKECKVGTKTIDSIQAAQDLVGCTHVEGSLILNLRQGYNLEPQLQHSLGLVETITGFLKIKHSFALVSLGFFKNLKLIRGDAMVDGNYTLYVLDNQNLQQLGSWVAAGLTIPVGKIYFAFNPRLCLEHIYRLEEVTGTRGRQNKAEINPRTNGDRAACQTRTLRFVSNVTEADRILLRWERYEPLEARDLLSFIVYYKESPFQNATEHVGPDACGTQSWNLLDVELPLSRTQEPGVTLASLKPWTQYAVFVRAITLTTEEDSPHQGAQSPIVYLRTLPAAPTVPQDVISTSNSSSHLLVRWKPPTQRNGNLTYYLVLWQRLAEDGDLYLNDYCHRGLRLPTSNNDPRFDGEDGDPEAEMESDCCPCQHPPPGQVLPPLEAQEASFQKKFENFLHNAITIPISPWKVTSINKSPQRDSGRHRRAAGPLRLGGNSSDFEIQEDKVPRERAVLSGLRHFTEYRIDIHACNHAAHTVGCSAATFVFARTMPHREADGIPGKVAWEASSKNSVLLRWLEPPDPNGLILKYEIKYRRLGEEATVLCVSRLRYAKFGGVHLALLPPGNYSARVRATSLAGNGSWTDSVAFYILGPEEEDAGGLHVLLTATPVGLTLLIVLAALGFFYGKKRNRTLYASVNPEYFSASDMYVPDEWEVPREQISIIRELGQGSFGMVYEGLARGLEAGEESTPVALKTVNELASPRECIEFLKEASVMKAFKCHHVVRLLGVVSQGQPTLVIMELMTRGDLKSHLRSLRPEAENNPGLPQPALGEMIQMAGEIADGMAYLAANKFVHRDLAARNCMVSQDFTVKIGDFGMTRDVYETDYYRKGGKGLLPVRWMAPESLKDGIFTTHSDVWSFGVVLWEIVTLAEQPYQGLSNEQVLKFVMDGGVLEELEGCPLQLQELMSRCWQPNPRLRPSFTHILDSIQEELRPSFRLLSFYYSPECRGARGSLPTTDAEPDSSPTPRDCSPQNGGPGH
Method in brief: as §1

JNK1 = JNK1 (Homo sapiens (Human), UniProt P45983); assay: Reaction Biology HotSpot kinase assay; type: biochemical; details: 500 nM compound; for inhibition at 0.5 µM: read-out: Percentage kinase inhibition JNK1
Method in brief: as §1

LRRK2 = LRRK2 (Homo sapiens (Human), UniProt Q5S007); assay: Reaction Biology HotSpot kinase assay; type: biochemical; details: 500 nM compound; for inhibition at 0.5 µM: read-out: Percentage kinase inhibition LRRK2
Method in brief: as §1

LYN = LYN (Homo sapiens (Human), UniProt P07948); assay: Reaction Biology HotSpot kinase assay; type: biochemical; details: 500 nM compound; for inhibition at 0.5 µM: read-out: Percentage kinase inhibition LYN
Method in brief: as §1

MEKK1 = MEKK1 (Homo sapiens (Human), UniProt Q13233); assay: Reaction Biology HotSpot kinase assay; type: biochemical; details: 500 nM compound; for inhibition at 0.5 µM: read-out: Percentage kinase inhibition MEKK1
Method in brief: as §1

MELK = MELK (Homo sapiens (Human), UniProt Q14680); assay: Reaction Biology HotSpot kinase assay; type: biochemical; details: 500 nM compound; for inhibition at 0.5 µM: read-out: Percentage kinase inhibition MELK
MELK, sequence (Q14680 whole entry): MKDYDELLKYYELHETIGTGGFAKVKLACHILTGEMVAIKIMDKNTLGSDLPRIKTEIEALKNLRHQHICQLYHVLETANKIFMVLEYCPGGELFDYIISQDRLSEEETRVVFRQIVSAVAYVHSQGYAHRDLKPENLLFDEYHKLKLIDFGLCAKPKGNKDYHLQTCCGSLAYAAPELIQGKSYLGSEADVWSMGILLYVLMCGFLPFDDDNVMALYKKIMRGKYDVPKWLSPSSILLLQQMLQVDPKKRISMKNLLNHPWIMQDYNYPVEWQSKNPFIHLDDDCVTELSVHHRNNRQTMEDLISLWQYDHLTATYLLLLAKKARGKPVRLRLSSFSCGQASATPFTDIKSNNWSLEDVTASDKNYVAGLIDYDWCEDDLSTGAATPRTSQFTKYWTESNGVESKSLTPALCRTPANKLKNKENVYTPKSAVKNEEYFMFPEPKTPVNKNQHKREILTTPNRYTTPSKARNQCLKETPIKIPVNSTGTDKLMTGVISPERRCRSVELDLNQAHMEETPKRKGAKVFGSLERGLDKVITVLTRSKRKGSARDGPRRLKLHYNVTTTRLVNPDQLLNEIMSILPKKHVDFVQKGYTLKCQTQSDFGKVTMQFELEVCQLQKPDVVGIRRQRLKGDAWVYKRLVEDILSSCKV
Method in brief: as §1

PAK1 = PAK1 (Homo sapiens (Human), UniProt Q13153); assay: Reaction Biology HotSpot kinase assay; type: biochemical; details: 500 nM compound; for inhibition at 0.5 µM: read-out: Percentage kinase inhibition PAK1
PAK1, sequence (Q13153 whole entry): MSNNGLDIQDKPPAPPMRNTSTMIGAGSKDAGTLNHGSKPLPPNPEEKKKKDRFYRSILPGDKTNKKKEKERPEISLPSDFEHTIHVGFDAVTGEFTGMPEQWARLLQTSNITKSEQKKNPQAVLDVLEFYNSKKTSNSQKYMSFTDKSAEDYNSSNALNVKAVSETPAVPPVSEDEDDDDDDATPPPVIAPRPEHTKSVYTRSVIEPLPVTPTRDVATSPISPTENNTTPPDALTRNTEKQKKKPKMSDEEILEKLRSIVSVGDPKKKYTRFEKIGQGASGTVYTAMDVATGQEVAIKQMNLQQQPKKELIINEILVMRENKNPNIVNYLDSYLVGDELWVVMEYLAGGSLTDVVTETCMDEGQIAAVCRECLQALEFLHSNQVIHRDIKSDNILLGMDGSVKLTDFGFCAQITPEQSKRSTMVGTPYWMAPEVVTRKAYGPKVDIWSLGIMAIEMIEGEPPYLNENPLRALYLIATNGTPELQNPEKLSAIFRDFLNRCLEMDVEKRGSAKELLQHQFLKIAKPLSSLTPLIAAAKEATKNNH
Method in brief: as §1

RON/MST1R = RON/MST1R (Homo sapiens (Human), UniProt Q04912); assay: Reaction Biology HotSpot kinase assay; type: biochemical; details: 500 nM compound; for inhibition at 0.5 µM: read-out: Percentage kinase inhibition RON/MST1R
Method in brief: as §1

RSK2 = RSK2 (Homo sapiens (Human), UniProt P51812); assay: Reaction Biology HotSpot kinase assay; type: biochemical; details: 500 nM compound; for inhibition at 0.5 µM: read-out: Percentage kinase inhibition RSK2
Method in brief: as §1

TAOK1 = TAOK1 (Homo sapiens (Human), UniProt Q7L7X3); assay: Reaction Biology HotSpot kinase assay; type: biochemical; details: 500 nM compound; for inhibition at 0.5 µM: read-out: Percentage kinase inhibition TAOK1
TAOK1, sequence (Q7L7X3 whole entry): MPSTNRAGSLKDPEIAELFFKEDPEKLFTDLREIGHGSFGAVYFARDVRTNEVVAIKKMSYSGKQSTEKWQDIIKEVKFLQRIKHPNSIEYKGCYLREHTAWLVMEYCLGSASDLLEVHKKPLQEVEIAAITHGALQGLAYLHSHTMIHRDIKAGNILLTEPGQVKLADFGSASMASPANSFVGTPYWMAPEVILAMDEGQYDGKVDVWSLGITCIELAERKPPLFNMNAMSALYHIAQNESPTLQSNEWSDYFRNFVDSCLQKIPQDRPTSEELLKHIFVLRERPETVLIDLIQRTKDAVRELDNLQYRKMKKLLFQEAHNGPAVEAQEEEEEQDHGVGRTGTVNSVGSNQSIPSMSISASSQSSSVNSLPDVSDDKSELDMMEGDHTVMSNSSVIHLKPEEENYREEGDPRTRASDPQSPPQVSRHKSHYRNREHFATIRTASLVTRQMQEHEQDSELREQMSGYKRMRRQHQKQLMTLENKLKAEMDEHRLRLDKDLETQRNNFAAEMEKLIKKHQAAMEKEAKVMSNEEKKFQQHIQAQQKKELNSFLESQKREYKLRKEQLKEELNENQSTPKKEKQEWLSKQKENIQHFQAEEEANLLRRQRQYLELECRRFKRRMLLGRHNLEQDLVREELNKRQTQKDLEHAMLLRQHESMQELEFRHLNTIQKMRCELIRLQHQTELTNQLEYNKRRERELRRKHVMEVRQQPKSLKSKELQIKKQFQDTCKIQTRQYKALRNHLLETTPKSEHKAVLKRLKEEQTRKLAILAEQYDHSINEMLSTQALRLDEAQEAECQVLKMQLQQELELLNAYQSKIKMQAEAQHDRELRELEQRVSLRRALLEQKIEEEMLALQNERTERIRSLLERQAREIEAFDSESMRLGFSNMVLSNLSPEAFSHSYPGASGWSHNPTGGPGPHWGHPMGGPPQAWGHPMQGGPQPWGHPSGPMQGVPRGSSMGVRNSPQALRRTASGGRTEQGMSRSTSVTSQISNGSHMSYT
Method in brief: as §1

TRKC = TRKC (Homo sapiens (Human), UniProt Q16288); assay: Reaction Biology HotSpot kinase assay; type: biochemical; details: 500 nM compound, 100 μM radiolabeled ATP
TRKC, sequence (Q16288 32-839): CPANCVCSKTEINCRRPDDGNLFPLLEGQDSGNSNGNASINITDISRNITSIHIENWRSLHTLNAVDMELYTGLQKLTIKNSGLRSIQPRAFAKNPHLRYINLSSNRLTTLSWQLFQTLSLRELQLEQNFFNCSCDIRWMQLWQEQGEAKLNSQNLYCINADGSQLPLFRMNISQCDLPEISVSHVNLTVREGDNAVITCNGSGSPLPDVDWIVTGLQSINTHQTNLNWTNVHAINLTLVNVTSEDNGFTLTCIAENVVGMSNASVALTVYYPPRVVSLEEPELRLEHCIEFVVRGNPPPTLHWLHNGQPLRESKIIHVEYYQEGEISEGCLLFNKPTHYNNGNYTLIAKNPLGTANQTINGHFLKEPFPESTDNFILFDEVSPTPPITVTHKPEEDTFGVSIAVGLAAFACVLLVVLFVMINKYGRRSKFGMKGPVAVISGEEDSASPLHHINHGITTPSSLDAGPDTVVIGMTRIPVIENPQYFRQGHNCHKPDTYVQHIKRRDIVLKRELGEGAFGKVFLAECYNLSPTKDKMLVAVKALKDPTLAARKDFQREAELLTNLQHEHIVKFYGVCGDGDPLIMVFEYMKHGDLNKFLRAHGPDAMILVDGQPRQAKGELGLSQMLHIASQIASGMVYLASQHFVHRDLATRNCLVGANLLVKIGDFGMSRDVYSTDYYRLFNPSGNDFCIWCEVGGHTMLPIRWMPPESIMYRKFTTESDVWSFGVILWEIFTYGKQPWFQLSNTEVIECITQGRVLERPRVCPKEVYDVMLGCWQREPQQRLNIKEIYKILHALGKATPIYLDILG
Method in brief: as §3

c-Src = c-Src (Homo sapiens (Human), UniProt P12931); assay: Reaction Biology HotSpot kinase assay; type: biochemical; details: 500 nM compound; for inhibition at 0.5 µM: read-out: Percentage kinase inhibition c-Src
Method in brief: as §1

[1] = Homo sapiens, K562, 72 h, read-out: IC50 (proliferation inhibition) Cell line - K562
[2] = Homo sapiens, K562, Table 18, read-out: Inhibition of proliferation of K562 cell lines (CML)

SMILES: Cc1ccc(C(=O)Nc2ccc(CN3CCN(C)CC3)c(C(F)(F)F)c2)cc1C#Cc1cnc(N)c2ccccc12 [HSN334, 3-((1-aminoisoquinolin-4-yl)ethynyl)-4-methyl-N-(4-((4-methylpiperazin-1-yl)methyl)-3-(trifluoromethyl)phenyl)benzamide]
inhibition at 0.5 µM (RET): 100% | IC50 (K562; [1]): 6 nM | IC50 (K562; [2]): 6.1 ± 0.1 nM | IC50 (MV4-11; Homo sapiens, MV4-11, 72 h): 1 nM

SMILES: Cc1ccc(C(=O)Nc2ccc(CN3CCN(C)CC3)c(C(F)(F)F)c2)cc1C#Cc1c(N)ncc2ccc(Cl)cc12 [HSN286]
inhibition at 0.5 µM (AKT2): 3% | inhibition at 0.5 µM (BLK): 100% | inhibition at 0.5 µM (BRK): 92% | inhibition at 0.5 µM (CDK2/cyclin A): 0% | inhibition at 0.5 µM (CDK4/cyclin D1): 0% | inhibition at 0.5 µM (CDK9/cyclin K): 24% | inhibition at 0.5 µM (CDK9/cyclin T1): 0% | inhibition at 0.5 µM (FER): 0% | inhibition at 0.5 µM (FRK/PTK5): 95% | inhibition at 0.5 µM (IGF1R): 0% | inhibition at 0.5 µM (IR): 16% | inhibition at 0.5 µM (IRR/INSRR): 0% | inhibition at 0.5 µM (JNK1): 7% | inhibition at 0.5 µM (LRRK2): 6% | inhibition at 0.5 µM (LYN): 98% | inhibition at 0.5 µM (MEKK1): 6% | inhibition at 0.5 µM (MELK): 27% | inhibition at 0.5 µM (PAK1): 0% | inhibition at 0.5 µM (RET): 100% | inhibition at 0.5 µM (RON/MST1R): 0% | inhibition at 0.5 µM (RSK2): 0% | inhibition at 0.5 µM (TAOK1): 0% | inhibition at 0.5 µM (TRKC): 91% | IC50 (K562; [2]): 3.5 ± 0.02 nM | IC50 (MV4-11; Homo sapiens, MV4-11, 72 h): 0.4 nM

SMILES: Cc1ccc(C(=O)Nc2ccc(CN3CCN(C)CC3)c(C(F)(F)F)c2)cc1C#Cc1cnc(N)c2ncccc12 [HSN356, 3-((8-amino-1,7-naphthyridin-5-yl)ethynyl)-4-methyl-N-(4-((4-methylpiperazin-1-yl)methyl)-3-(trifluoromethyl)phenyl)benzamide]
inhibition at 0.5 µM (RET): 100% | inhibition at 0.5 µM (TRKC): 59% | IC50 (K562; [1]): 2 nM | IC50 (K562; [2]): 1.8 ± 0.03 nM | IC50 (MV4-11; Homo sapiens, MV4-11, 72 h): 0.4 nM

SMILES: CN(C)CC(O)CNC(=O)c1ccc(C#Cc2c(N)ncc3ccc(Cl)cc23)cc1 (stereo not drawn) [HSM1702]
Percentage kinase inhibition AKT2 (AKT2): 18% | Percentage kinase inhibition BLK (BLK): 10% | Percentage kinase inhibition BRK (BRK): 18% | Percentage kinase inhibition CDK2/cyclin A (CDK2/cyclin A): 18% | Percentage kinase inhibition CDK4/cyclin D1 (CDK4/cyclin D1): 16% | Percentage kinase inhibition CDK9/cyclin K (CDK9/cyclin K): 53% | Percentage kinase inhibition CDK9/cyclin T1 (CDK9/cyclin T1): 41% | Percentage kinase inhibition FER (FER): 0% | Percentage kinase inhibition FRK/PTK5 (FRK/PTK5): 0% | Percentage kinase inhibition IGF1R (IGF1R): 3% | Percentage kinase inhibition IR (IR): 9% | Percentage kinase inhibition IRR/INSRR (IRR/INSRR): 10% | Percentage kinase inhibition JNK1 (JNK1): 0% | Percentage kinase inhibition LRRK2 (LRRK2): 40% | Percentage kinase inhibition LYN (LYN): 6% | Percentage kinase inhibition MEKK1 (MEKK1): 4% | Percentage kinase inhibition MELK (MELK): 12% | Percentage kinase inhibition PAK1 (PAK1): 1% | Percentage kinase inhibition RET (RET): 15% | Percentage kinase inhibition RON/MST1R (RON/MST1R): 0% | Percentage kinase inhibition RSK2 (RSK2): 7% | Percentage kinase inhibition TAOK1 (TAOK1): 12% | % inhibition of TrkC (TRKC): 81% | Percentage kinase inhibition c-Src (c-Src): 9% | IC50 (K562; 72 h, read-out: IC50 (proliferation inhibition) Cell line - K562): 5060 nM | IC50 (K562; Table 18, read-out: Inhibition of proliferation of K562 cell lines (CML)): 5057 ± 0.45 nM | IC50 (MV4-11; 72 h): 71 nM

Second part, the compound after the results:

inhibition at 0.5 µM (AKT2): 0% | inhibition at 0.5 µM (BLK): 30% | inhibition at 0.5 µM (BRK): 0% | inhibition at 0.5 µM (CDK2/cyclin A): 0% | inhibition at 0.5 µM (CDK4/cyclin D1): 0% | inhibition at 0.5 µM (CDK9/cyclin K): 7% | inhibition at 0.5 µM (CDK9/cyclin T1): 0% | inhibition at 0.5 µM (FER): 12% | inhibition at 0.5 µM (FRK/PTK5): 49% | inhibition at 0.5 µM (IGF1R): 0% | inhibition at 0.5 µM (IR): 9% | inhibition at 0.5 µM (IRR/INSRR): 0% | inhibition at 0.5 µM (JNK1): 0% | inhibition at 0.5 µM (LRRK2): 0% | inhibition at 0.5 µM (LYN): 69% | inhibition at 0.5 µM (MEKK1): 4% | inhibition at 0.5 µM (MELK): 0% | inhibition at 0.5 µM (PAK1): 0% | inhibition at 0.5 µM (RET): 96% | inhibition at 0.5 µM (RON/MST1R): 0% | inhibition at 0.5 µM (RSK2): 0% | inhibition at 0.5 µM (TAOK1): 0% | inhibition at 0.5 µM (TRKC): 4% | inhibition at 0.5 µM (c-Src): 30% | IC50 (K562; [1]): 444 nM | IC50 (K562; [2]): 44 ± 0.1 nM | IC50 (MV4-11; Homo sapiens, MV4-11, 72 h): 135 nM
SMILES: COc1cc2nc(N)nc(C#Cc3cc(C(=O)Nc4ccc(CN5CCN(C)CC5)c(C(F)(F)F)c4)ccc3C)c2cc1OC [HSN325]

inhibition at 0.5 µM (TRKC): 0% | inhibition at 0.5 µM (c-Src): 0% | IC50 (K562; [1]): 1100 nM | IC50 (K562; [2]): 1102 ± 0.08 nM | IC50 (MV4-11; Homo sapiens, MV4-11, 72 h): 722 nM
SMILES: Cc1ccc(C(=O)Nc2ccc(CN3CCN(C)CC3)c(C(F)(F)F)c2)cc1C#Cc1cc(N)nc2ccccc12 [HSN285]
